# Source: BindingDB's records for patent US10633389 (Epizyme, Inc., 2020)
# Target: T1, Histone-arginine methyltransferase CARM1 (Homo sapiens, UniProt Q86X55)
# T1 sequence (Q86X55 whole entry): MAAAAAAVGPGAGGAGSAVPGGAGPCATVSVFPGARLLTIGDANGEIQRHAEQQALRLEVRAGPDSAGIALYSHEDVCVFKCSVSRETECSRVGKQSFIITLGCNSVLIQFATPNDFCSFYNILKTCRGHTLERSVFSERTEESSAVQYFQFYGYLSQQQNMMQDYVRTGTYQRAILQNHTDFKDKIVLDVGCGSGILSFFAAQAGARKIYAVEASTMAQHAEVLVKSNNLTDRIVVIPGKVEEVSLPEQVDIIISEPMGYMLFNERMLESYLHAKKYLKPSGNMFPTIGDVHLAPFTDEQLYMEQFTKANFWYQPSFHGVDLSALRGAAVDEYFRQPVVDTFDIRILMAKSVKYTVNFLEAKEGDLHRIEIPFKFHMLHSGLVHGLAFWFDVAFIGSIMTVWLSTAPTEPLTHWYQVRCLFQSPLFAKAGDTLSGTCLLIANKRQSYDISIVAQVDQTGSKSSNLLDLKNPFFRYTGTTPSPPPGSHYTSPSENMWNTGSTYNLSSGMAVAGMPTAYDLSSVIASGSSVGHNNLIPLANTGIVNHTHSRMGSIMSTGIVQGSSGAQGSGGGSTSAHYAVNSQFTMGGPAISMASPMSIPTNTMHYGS
# Test: Enzyme Assay
# Experimental: The assays were all performed in a buffer consisting of 20 mM Bicine (pH=7.6), 1 mM TCEP, 0.005% BSG, and 0.002% Tween 20, prepared on the day of use. […] DMSO (1 ul) was added to Columns 11, 12, 23, 24, rows A-H for the maximum signal control and 1 ul of SAH, a known product and inhibitor of CARM1, was added to columns 11, 12, 23, 24, rows I-P for the minimum signal control. A cocktail (40 ul) containing the CARM1 enzyme was added by Multidrop Combi. The compounds were allowed to incubate with CARM1 for 30 min at room temperature, then a cocktail (10 ul) containing 3H-SAM and peptide was added to initiate the reaction (final volume=51 ul). […] The assays were stopped by the addition of non-radiolabeled SAM (10 ul) to a final concentration of 300 uM, which dilutes the 3H-SAM to a level where its incorporation into the peptide substrate is no longer detectable. 50 ul of the reaction in the 384-well polypropylene plate was then transferred to a 384-well Flashplate and the biotinylated peptides were allowed to bind to the streptavidin surface for at least 1 hour before being washed once with 0.1% Tween20 in a Biotek ELx405 plate washer.
row,Structure (SMILES),IC50
1,"CCN1CCC(Nc2nc(-c3cc(OC[C@H](O)CNC)ccc3Cl)nc(-c3c(C)noc3C)c2C)C(F)(F)C1 (stereo partly specified) [US10633389, Example 291-3]",< 100 nM
2,"CNC[C@@H](O)COc1ccc(Cl)c(-c2nc(NC3CCN(C4CC4)CC3(F)F)c(C)c(-c3c(C)noc3C)n2)c1 (stereo partly specified) [US10633389, Example 292-3]",< 100 nM
3,"CNCC(O)COc1cccc(-c2nc(N[C@@H]3CCOC3)c(C)c(N3CCC[C@H]4CN(Cc5ccccc5)C[C@H]43)n2)c1 (stereo partly specified) [US10633389, Example 378-1a]",< 100 nM
4,"CNCC(O)COc1cccc(-c2nc(N[C@@H]3CCOC3)c(C)c(N3CCC(n4c(C)nnc4C)CC3)n2)c1 (stereo partly specified) [US10633389, Example 390-1a]",< 100 nM
5,"CNCC(O)COc1cccc(-c2nc(N[C@@H]3CCOC3)c(C)c(-c3ccc4nccn4c3)n2)c1 (stereo partly specified) [US10633389, Example 445-1a]",< 100 nM
6,"CCS(=O)(=O)n1cc(-c2cc(N(C)C3CCOCC3)nc(-c3cccc(OCC(O)CNC)c3)n2)c2cncnc21 (stereo unspecified) [US10633389, Example 484-1a]",< 100 nM
